Drawing on patent US5726195A, “Aminoacyl adenylate mimics as novel antimicrobial and antiparasitic agents” (Cubist Pharmaceuticals, Inc., priority 1996, dated 1998), this text covers IC50 and MIC for 7 molecules.

≈ marks a conversion by molar mass, not a printed value.

In assay [1] the target is E. Coli. IleRS (isoleucyl-tRNA synthetase) (Escherichia coli, UniProt P00956). Kind of assay: Inhibition of isoleucyl-tRNA synthetase (aminoacylation of tRNA with [3H]isoleucine). The assay is classed as biochemical. As to conditions: E. coli enzyme; irreversible inhibitors: values are 50% of the active enzyme concentration; read-out: IC50 E.Coli. IleRS. Here is the method:
The extent of aminoacylation of tRNA with isoleucine catalyzed by isoleucyl-tRNA synthetase enzyme was measured by monitoring the incorporation of [3H] isoleucine into trichloroacetic acid-precipitable tRNA in the presence of a compound of Formula I, as compared with activity in the absence of inhibitor. The isoleucyl-tRNA synthetase enzymes are well known in the prior art and can be obtained and purified by known methods (for example see: D. Kern et at., Biochimie, 61, 1257-1272 (1979) and J. Gilbart et al., Antimicrobial Agents and Chemotherapy, 37 (1), 32-38 (1993)).
Isoleucyl-tRNA synthetase enzyme (0.08-2.0 nM, preferably, 0.4 nM) was first pre-incubated at 25° C. with 0.05 mg/ml bovine serum albumin, 10 mM DTT, 2.5% dimethyl sulfoxide, with or without a compound of Formula I, for 20 minutes. At this point a substrate solution (a solution containing the following: ATP, [^3 H]isoleucine, tRNA, HEPES, magnesium chloride, and potassium chloride) was added to give a final concentration of 0.0286 mg/ml bovine serum albumin, 5.7 mM DTT, 4 mM ATP, 5-20 μM [^3 H] isoleucine (1-15 Ci/mmol), 90 μM crude tRNA or 2 μM isoleucine specific tRNA, 1.4% dimethyl sulfoxide, 30 mM HEPES (pH 7.5), 10 mM magnesium chloride, and 50 mM potassium chloride and incubated at 25° C. Aliquots were removed at selected times (e.g. 5, 10, 20 minutes) and applied to 3MM filter paper discs (Whatman) and then dropped into 5% (wt/vol) trichloroacetic acid for >5 minutes. Filters were washed for three 10-minute periods in 5% trichloroacetic acid, rinsed in 95% ethanol and diethyl ether, and radioactivity was measured with Betafluor™ (National Diagnostics) by liquid scintillation counting.
Inhibitor activity is reported in Table II as an IC50 value (inhibitor concentration causing 50% inhibition of enzyme activity) per a known amount of active enzyme. In the case of irreversible inhibitors (1:1 stoichiometry) these values are 50% of the active enzyme concentration. The IC50 (in nM, E. coli) values of representative compounds of the present invention are listed in the second column of Table II.

Assay [2] has as its system C. albicans ATCC 10231. Kind of assay: Whole cell antimicrobial screen, MIC. Format: cell-based. Particulars: Candida albicans, ATCC10231. Here is the method: (§1) Compounds were tested for antimicrobial activity against a panel of organisms according to standard procedures described by the National Committee for Clinical Laboratory Standards (NCCLS document M7-A3, Vol. 13, No. 25, 1993/NCCLS document M27-P, Vol. 12, No. 25, 1992). Compounds were dissolved in 100% dimethyl sulfoxide and were diluted to the final reaction concentration (0.1 μg/mL-500 μg/mL) in microbial growth media. In al cases the final concentration of dimethyl sulfoxide incubated with cells is less than or equal to 1%. For minimum inhibitory concentration (MIC) calculations, 2-fold dilutions of compounds were added to wells of a microtiter plate containing 5×10^4 bacteria or fungal cells in a final volume of 100 lambda of an appropriate media (Mueller-Hinton Broth; Haemophilus Test Media; Mueller-Hinton Broth+5% Sheep Blood; or […]). Plates were incubated overnight at an appropriate temperature (30° C.-37° C.) and optical densities (measure of cell growth) were measured using a commercial plate reader. The MIC value is defined as the lowest compound concentration inhibiting growth of the test organism.

Assay [3] concerns E. faecalis ATCC 33011. Kind of assay: Whole cell antimicrobial screen, MIC. As to conditions: Enterococcus faecalis, ATCC33011. Format: cell-based. As for the experimental part: as §1
Assay [4] concerns E. faecium ATCC 6569. As to the kind of experiment: Whole cell antimicrobial screen, MIC. As to conditions: Enterococcus faecium, ATCC6569. The assay is classed as cell-based. Here is the method: as §1
Assay [5] concerns S. aureus ATCC 14154. As to the kind of experiment: Whole cell antimicrobial screen, MIC. The assay is classed as cell-based. As to conditions: Staphylococcus aureus, ATCC14154. As for the experimental part:
as §1

Assay [6] deals with S. aureus ATCC 6538P. As to the kind of experiment: Whole cell antimicrobial screen, MIC. Particulars: Staphylococcus aureus, ATCC6538P. Format: cell-based. Here is the method: as §1
In assay [7] the test system is S. epidermidis ATCC 33501. As to the kind of experiment: Whole cell antimicrobial screen, MIC. Format: cell-based. Particulars: Staphylococcus epidermidis, ATCC33501. Here is the method:
as §1

Assay [8] deals with S. saprophyticus ATCC 35552. Kind of assay: Whole cell antimicrobial screen, MIC. Format: cell-based. As to conditions: Staphylococcus saprophyticus, ATCC35552. Here is the method: as §1

Sequence of E. Coli. IleRS (isoleucyl-tRNA synthetase) (P00956 whole entry): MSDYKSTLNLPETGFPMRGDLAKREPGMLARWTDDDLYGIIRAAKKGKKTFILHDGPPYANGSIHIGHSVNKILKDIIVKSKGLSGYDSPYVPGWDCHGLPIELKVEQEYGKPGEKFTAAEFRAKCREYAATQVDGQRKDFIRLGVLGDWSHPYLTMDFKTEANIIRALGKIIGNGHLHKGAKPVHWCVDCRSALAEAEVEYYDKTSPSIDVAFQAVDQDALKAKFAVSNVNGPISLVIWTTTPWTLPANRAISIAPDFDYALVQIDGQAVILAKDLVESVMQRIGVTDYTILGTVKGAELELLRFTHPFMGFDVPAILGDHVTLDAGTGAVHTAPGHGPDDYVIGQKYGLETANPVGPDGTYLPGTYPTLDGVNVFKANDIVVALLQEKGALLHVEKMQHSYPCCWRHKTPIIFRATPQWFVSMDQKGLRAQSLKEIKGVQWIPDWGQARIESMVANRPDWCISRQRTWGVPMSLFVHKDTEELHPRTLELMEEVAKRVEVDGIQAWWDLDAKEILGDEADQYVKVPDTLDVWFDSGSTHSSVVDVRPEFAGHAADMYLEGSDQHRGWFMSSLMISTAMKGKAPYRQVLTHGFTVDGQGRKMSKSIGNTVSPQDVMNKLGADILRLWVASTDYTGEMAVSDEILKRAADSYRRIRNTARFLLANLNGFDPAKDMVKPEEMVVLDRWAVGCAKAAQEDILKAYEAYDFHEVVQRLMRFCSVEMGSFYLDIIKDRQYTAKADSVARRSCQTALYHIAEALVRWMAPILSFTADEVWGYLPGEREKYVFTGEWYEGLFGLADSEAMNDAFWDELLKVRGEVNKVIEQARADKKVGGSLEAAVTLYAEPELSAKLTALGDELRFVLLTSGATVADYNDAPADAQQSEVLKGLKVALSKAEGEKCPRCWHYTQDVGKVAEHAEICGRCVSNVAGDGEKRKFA

On to `CC[C@H](C)[C@H](N)C(=O)NS(=O)(=O)OC[C@H]1O[C@@H](Cn2nnc(Cc3ccc(Oc4ccccc4)cc3)n2)[C@H](O)[C@@H]1O` [XXVII, [S-(R*,R*)]-2,5-anhydro-1-deoxy-1-[5-(4-phenoxyphenylmethyl)-2H-tetrazol-2-yl]-D-allitol 6-(2-amino-3-methyl-1-oxopentyl)sulfamate], for which, in assay [1], the 50% inhibitory concentration (IC50) was found to be 135 nM. For the same molecule, the MIC in assay [2], in assay [3], in assay [4], in assay [5], in assay [6] and in assay [7] was above 500 µg/mL throughout. This molecule also showed an MIC in assay [8] above 500 µg/mL.
On to `CC[C@H](C)[C@H](N)C(=O)NS(=O)(=O)OC[C@H]1O[C@@H](CCn2nnc(CCCOc3ccccc3)n2)[C@H](O)[C@@H]1O` [XXIX], for which, in assay [1], the concentration for half-maximal inhibition (IC50) came to 0.3 nM. For the same molecule, the MIC in assay [2] is above 500 µg/mL; in assay [3], above 500 µg/mL; in assay [4], above 500 µg/mL; in assay [5] it was above 500 µg/mL; in assay [6], 500 µg/mL (≈ 898 µM); in assay [7] it was 25 µg/mL (≈ 44.9 µM). For the same molecule, inhibition of growth in assay [8] (MIC) required 500 µg/mL (≈ 898 µM).
For the molecule `CC[C@H](C)[C@H](N)C(=O)NS(=O)(=O)OC[C@H]1O[C@@H](CCn2nnc(-c3ccc(Oc4ccc(N)cc4)cc3)n2)[C@H](O)[C@@H]1O` [XIII], the IC50 in assay [1] stood at 0.4 nM. Besides, the minimal inhibitory concentration (MIC) in assay [2] is above 500 µg/mL; in assay [3], above 500 µg/mL; in assay [4], 25 µg/mL (≈ 41.3 µM); in assay [5] it was 100 µg/mL (≈ 165 µM); in assay [6], 50 µg/mL (≈ 82.6 µM); in assay [7], 10 µg/mL (≈ 16.5 µM). The molecule also displayed a minimal inhibitory concentration (MIC) in assay [8] of 25 µg/mL (≈ 41.3 µM).
With `CC[C@H](C)[C@H](N)C(=O)NS(=O)(=O)OC[C@H]1O[C@@H](CCn2nnc(-c3ccc(Oc4nccs4)cc3)n2)[C@H](O)[C@@H]1O` [XVII], the half-inhibitory concentration (IC50) in assay [1] was found to be 1 nM. Moreover, the minimum inhibitory concentration (MIC) in assay [2] is above 500 µg/mL; in assay [3], above 500 µg/mL; in assay [4], 50 µg/mL (≈ 83.7 µM); in assay [5], 500 µg/mL (≈ 837 µM); in assay [6] it was 100 µg/mL (≈ 167 µM); in assay [7], 25 µg/mL (≈ 41.8 µM). In addition, the lowest concentration to inhibit growth in assay [8] (MIC) was 50 µg/mL (≈ 83.7 µM).
Regarding `CC[C@H](C)[C@H](N)C(=O)NS(=O)(=O)OC[C@H]1O[C@@H](CCn2nnc(-c3ccc([N+](=O)[O-])cc3)n2)[C@H](O)[C@@H]1O` [VIII], the IC50 in assay [1] turned out to be 0.5 nM. Besides, the MIC was above 500 µg/mL in assay [2]; above 500 µg/mL in assay [3]; 500 µg/mL (≈ 920 µM) in assay [4]; 500 µg/mL (≈ 920 µM) in assay [5]; 500 µg/mL (≈ 920 µM) in assay [6]; 10 µg/mL (≈ 18.4 µM) in assay [7]. The molecule further displayed a minimum inhibitory concentration (MIC) in assay [8] of 100 µg/mL (≈ 184 µM).
Take `CC[C@H](C)[C@H](N)C(=O)NS(=O)(=O)OC[C@H]1O[C@@H](CCn2nnc(-c3ccc([N+](=O)[O-])o3)n2)[C@H](O)[C@@H]1O` [XXVIII]: in assay [1], the IC50 worked out at 8.8 nM. The MIC in assay [2] was 500 µg/mL (≈ 937 µM); in assay [3], above 128 µg/mL; in assay [4], above 128 µg/mL; in assay [5], 128 µg/mL (≈ 240 µM); in assay [6], 128 µg/mL (≈ 240 µM); in assay [7] it was 32 µg/mL (≈ 60 µM). The molecule also showed a minimal inhibitory concentration (MIC) in assay [8] above 128 µg/mL.
As for `CC[C@H](C)[C@H](N)C(=O)NS(=O)(=O)OC[C@H]1O[C@@H](CCn2nnc(-c3ccc(Oc4cccc(C(F)(F)F)c4)cc3)n2)[C@H](O)[C@@H]1O` [XIV], in assay [1], the concentration for half-maximal inhibition (IC50) was determined as 1.7 nM. The minimal inhibitory concentration (MIC) in assay [2] is above 500 µg/mL; in assay [3], 100 µg/mL (≈ 152 µM); in assay [4], 10 µg/mL (≈ 15.2 µM); in assay [5], 25 µg/mL (≈ 38 µM); in assay [6] it was 10 µg/mL (≈ 15.2 µM); in assay [7], 5 µg/mL (≈ 7.59 µM). Moreover, the MIC in assay [8] amounted to 10 µg/mL (≈ 15.2 µM).

One may read the IC50 as the midpoint of a concentration-inhibition curve. A word on the MIC: it is the lowest concentration found to suppress growth.
